Experimental findings from PubChem BioAssay (NCI) are described below.

Experiment in all cases: NCI anticancer screen, dose series, 48 h
The subject of test [1] is ACHN renal.
Test [2] deals with CAKI-1 renal.
The test system of test [3] is HCC-2998 colon.
In test [4] the test system is HCT-15 colon.
In test [5] the test system is KM12 colon.
Test [6] relates to OVCAR-5 ovarian.
Test [7] relates to RXF 393 renal.
The subject of test [8] is SK-MEL-2 melanoma.
Test [9] has as its system SNB-75 CNS.
The subject of test [10] is UACC-62 melanoma.

SMILES strings stand for the structures.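 Method: 48-hour compound exposure of cells in 96-well plates, five concentrations, linear interpolation of endpoints. GI50: concentration for 50% inhibition of growth. Definition used: TGI = concentration required for complete inhibition of growth.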

In the case of `CC[C@@]1(OC(=O)CN(C)C)C(=O)OCc2c1cc1n(c2=O)Cc2cc3c(N)cccc3nc2-1`, the GI50 is 0.0286 µM in test [1]; < 0.01 µM in test [2]; 0.131 µM in [3]; 0.317 µM in test [4]; 0.102 µM in test [5]; 0.317 µM in [6]. Moreover, the GI50 in [7] was 0.144 µM; in test [8], 1.24 µM; in test [9], 0.0428 µM; in test [10] it was 0.0164 µM. The TGI is 0.287 µM in test [1]; 0.0537 µM in [2]; 0.875 µM in test [3]; > 100 µM in test [4]; 0.342 µM in test [5]; > 100 µM in test [6]. The TGI in test [7] is 0.576 µM; in test [8], > 100 µM; in test [9] it was 0.283 µM; in [10] it was 0.159 µM.
For the molecule `COc1ccc(C(=O)O[C@H]2CC[C@@]3(C)[C@@H]4CC[C@H]5[C@]6(O)C[C@H](O)[C@@]7(O)[C@@H](CN8C[C@@H](C)CC[C@H]8[C@@]7(C)O)[C@]6(O)C[C@@]53OC24O)cc1OC`, the TGI in test [1], in test [2], in test [3], in [4], in test [5] and in test [6] was > 100 µM throughout. Besides, the TGI in test [7], in test [8], in test [9] and in test [10] was > 100 µM in each case.
In the case of `Nc1c(OCC(=O)O)ccc2cc(S(=O)(=O)O)ccc12`, the TGI in [1], in test [2], in [3], in [4], in test [5] and in test [7] was > 100 µM each time. Further, the TGI in test [8], in test [9] and in [10] was > 100 µM in each case.
`COc1ccc(NC(=S)NNC(=O)c2nsc3ccccc23)cc1`: the TGI in [1] was > 100 µM; in test [3], > 100 µM; in [4], > 100 µM; in test [5], > 100 µM; in test [6], > 100 µM; in [7] it was 72.9 µM. Further, the figures for the TGI in test [8], in test [9] and in [10] were 90.8 µM, 66.8 µM and 71.6 µM, respectively.
Consider `C[C@]12Cc3cnc(-c4ccccc4)nc3C[C@@H]1CC[C@@H]1[C@@H]2CC[C@@]2(C)[C@H]1CC[C@]2(C)O`, for which the TGI is > 64.9 µM in [1]; 16.6 µM in [2]; 37.9 µM in [3]; > 63.2 µM in [4]; > 67.8 µM in [5]; 63.4 µM in [6]. Also, the TGI in test [7] amounted to 12.3 µM; in [8] it was 58.3 µM; in [9], 21.6 µM; in test [10], 48.4 µM.
Regarding `CCC1C(C#N)=C(O)NC(O)=C1C#N`, the TGI in test [1], in test [2], in test [3], in test [4], in [5] and in test [6] was > 100 µM in each case. Further, the TGI in test [7], in test [8], in [9] and in [10] was > 100 µM throughout.
As for `NC1C=NNC1=O` (stereo unspecified), the TGI in test [1], in [2], in test [3], in [4], in test [5] and in test [6] was > 100 µM each time. Moreover, the TGI in test [7], in test [8], in test [9] and in test [10] was > 100 µM throughout.
With `O=C1CCCC/C1=C1/SC(=Nc2ccccc2)C(=Nc2ccccc2)N1c1ccccc1`, the TGI in test [2] was > 100 µM; in test [3], > 100 µM; in test [4] it was > 100 µM; in test [5], > 100 µM; in [6], > 100 µM; in [7], 40 µM. Also, the TGI in test [8], in [9] and in test [10] was > 100 µM each time.
For the molecule `COc1ccc(C(=O)NC2=C(Cl)C(=O)c3ccccc3C2=O)cc1`, the TGI worked out at 1.73 µM in [1]; 6.94 µM in [2]; 16.9 µM in test [3]; 11 µM in [4]; 12.2 µM in [5]; 11.4 µM in test [6]. The TGI in test [7] came out at 8.25 µM; in test [8] it was 3.13 µM; in test [9] it was 12.8 µM; in test [10], 2.63 µM.
In the case of `Clc1cc2ccccc2c2ccccc12`, the TGI in test [1], in test [2], in test [3], in [4], in test [5] and in test [6] was > 100 µM each time. Besides, the TGI in test [7] was > 100 µM; in test [8], 73.3 µM; in [9], > 100 µM; in test [10], > 100 µM.
As to `O=C(O)C(O)(c1ccc(-c2ccccc2)cc1)c1ccc(-c2ccccc2)cc1`, the TGI in [1] was 94.7 µM; in test [2], > 100 µM; in test [4], 41.5 µM; in test [5] it was 40.9 µM; in test [6], 77.8 µM; in [7] it was 51.6 µM. Also, the TGI in [8] was 30.6 µM; in test [9], 48.2 µM; in test [10], 36.7 µM.
`CCOC(=O)c1nc2ccccc2n(CC)c1=O`: the TGI in [1], in test [2], in [3], in test [4], in [5] and in [6] was > 100 µM each time. The TGI in [7], in test [8] and in test [10] was > 100 µM throughout.
For the molecule `Clc1ccc(C2CC(c3cccc(Nc4ccncc4)c3)=NN2c2ccc(Cl)cc2)cc1` (stereo unspecified), the GI50 is 1.64 µM in [1]; 1.46 µM in test [2]; 1.73 µM in [3]; 1.55 µM in test [4]; 1.54 µM in test [6]; 1.54 µM in [7]. The results for the GI50 in test [9] and in [10] were 1.21 µM and 1.66 µM, respectively. Moreover, the TGI in test [1] turned out to be 3 µM; in [2], 2.79 µM; in test [3] it was 3.27 µM; in [4], 2.95 µM; in test [6], 2.88 µM; in test [7], 2.94 µM. In addition, the figures for the TGI in [9] and in test [10] were 2.56 µM and 3.04 µM, respectively.
